US10214544B2, “Imidazopyridazine and imidazothiadiazole compounds” (Universite de Montreal, priority 2015, dated 2019)

Molecular target: PAR4 (Homo sapiens (Human), UniProt Q96RI0)
Test: FLIPR assay in PAR4-expressing HEK293 cells (PAR4 antagonist activity)
Format: cell-based
Details: inhibition of H-Ala-Phe(4-F)-Pro-Gly-Trp-Leu-Val-Lys-Asn-Gly-NH2-induced intracellular calcium mobilization
Text: The FLIPR assay is an exemplary in vitro assay for measuring the activity of the PAR4 antagonists of the present invention. In this assay, intracellular calcium mobilization is induced in PAR4 expressing cells by a PAR4 agonist and calcium mobilization is monitored. See, e.g., Example A.
HEK293 cells stably expressing PAR4 were generated by a standard method of transfection of human PAR4 (F2R23) cDNA expression vector and selected based on PAR4 protein expression or mRNA expression. […] These cells also express endogenous PAR1 and can elicit calcium signal upon stimulation with PAR1 agonist peptide. Therefore, the same cells were also used to determine selectivity against PAR1 and agonist activity for both receptors. Cells from HEK293 PAR4 Clone 1.2A (BMS Arctic ID 383940) were propagated and used for calcium mobilization studies.
FLIPR-based calcium mobilization assay in HEK293 cells was used to measure PAR4 antagonism, agonism, and selectivity against PAR1. The activity of the PAR4 antagonists of the present invention were tested in PAR4 expressing cells by monitoring H-Ala-Phe(4-F)-[…]NH2-induced intracellular calcium mobilization. Counter screens for agonist activity and PAR1 antagonist activity were also performed. Briefly, PAR1/PAR4-expressing HEK293 cells were grown in DMEM (Life Technology, Grand Island, N.Y.) containing 10% heat-inactivated FBS, 1% Penicillin-Streptomycin, 10 μg/mL blasticidin, and 100 μg/mL Zeocin at 37° C. with 5% CO2. Cells were plated overnight prior to the experiment in a black 384-well Purecoat Amine clear bottom plate (Becton Dickinson Biosciences, San Jose, Calif.) at 10,000 cells/well in 30 μL growth medium and incubated in a humidified chamber at 37° C. with 5% CO2 overnight. Prior to compound addition, the cell medium was replaced with […] of 1× calcium and magnesium-containing Hank's Balanced Saline Solution (HBSS) (with 20 mM HEPES) and 1:1000 diluted fluorescent calcium indicator (Codex Biosolutions, Gaithersburg, Md.). After a 30 minute incubation period at 37° C. and a further 30 minute incubation and equilibration period at room temperature, 20 μL test compound (diluted in 1× HBSS buffer) was added at various concentrations at 0.17% dimethyl sulfoxide (DMSO) final concentration. Changes in fluorescence intensity were measured using a Functional Drug Screening System (FDSS, Hamamatsu, Japan) to determine agonist activities. The cells were then incubated for 30 minutes at room temperature followed by addition of 20 μL of agonist peptide for antagonist activity measurement. […] Compound potency was derived from 11-point concentration-response curves.
The following Table sets out results obtained employing various compounds of the invention tested in the FLIPR assay. As indicated above, the FLIPR assay, an in vitro assay, measures the PAR4 antagonist activity of compounds tested as described in Example A.

Chain of PAR4 (Q96RI0 18-385): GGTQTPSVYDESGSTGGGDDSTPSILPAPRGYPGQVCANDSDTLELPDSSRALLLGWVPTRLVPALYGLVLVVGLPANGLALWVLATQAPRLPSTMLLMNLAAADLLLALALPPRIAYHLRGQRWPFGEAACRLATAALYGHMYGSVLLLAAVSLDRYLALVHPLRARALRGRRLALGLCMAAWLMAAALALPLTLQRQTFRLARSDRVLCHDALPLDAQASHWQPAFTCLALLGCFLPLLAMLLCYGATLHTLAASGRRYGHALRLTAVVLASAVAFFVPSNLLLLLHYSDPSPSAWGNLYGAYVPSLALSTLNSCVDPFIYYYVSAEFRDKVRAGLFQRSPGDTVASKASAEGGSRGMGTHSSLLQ

SMILES | EC50 [nM]
COc1cc(OCc2cccc(NC(=O)c3ccc(F)cc3)c2)c2cc(-c3cn4nc(OC)sc4n3)oc2c1 [Example 2, 4-Fluoro-N-(3-(((6-methoxy-2-(2-methoxyimidazo[2,1-b][1,3,4]thiadiazol-6-yl)benzofuran-4-yl)oxy)methyl)phenyl)benzamide] | 1
COc1cc(OCc2cccc(N(C)C(=O)c3sc(C)nc3C)c2)c2cc(-c3cn4nc(OC)sc4n3)oc2c1 [Example 93] | 4.8
COc1cc(OCc2cccc(NC(=O)c3ccccc3OC)c2)c2cc(-c3cn4nc(OC)sc4n3)oc2c1 [Example 29] | 1.1
COc1cc(OCc2cccc(NC(=O)c3ccc(C#N)cc3)c2)c2cc(-c3cn4nc(OC)sc4n3)oc2c1 [Example 36] | 2.5
COc1cc(OCc2cccc3c2CCN3C(=O)c2ccccc2F)c2cc(-c3cn4nc(OC)sc4n3)oc2c1 [Example 120] | 4.2
COc1cc(OCc2cccc(NC(=O)c3sc(C)nc3C)c2)c2cc(-c3cn4nc(OC)sc4n3)oc2c1 [Example 50] | 7.4
COc1cc(OCc2cccc(NC(=O)c3cc(F)cc(OC(F)(F)F)c3)c2)c2cc(-c3cn4nc(OC)sc4n3)oc2c1 [Example 76] | 2.5
COc1cc(OCc2cccc(NC(=O)c3cccc(-c4ccccc4)c3)c2)c2cc(-c3cn4nc(OC)sc4n3)oc2c1 [Example 158] | 12
COc1cc(OCc2cccc(NC(=O)c3ccc(Cl)nc3)c2)c2cc(-c3cn4nc(OC)sc4n3)oc2c1 [Example 53] | 3.5
COc1cc(OCc2cccc(NC(=O)c3csc(-c4cccc(C(F)(F)F)c4)n3)c2)c2cc(-c3cn4nc(OC)sc4n3)oc2c1 [Example 80] | 94
COc1cc(OCc2cccc(N(C)C=O)c2)c2cc(-c3cn4nc(OC)sc4n3)oc2c1 [Example 97] | 2.5
COc1cc(OCc2cccc(NC(=O)c3c(F)cccc3C(F)(F)F)c2)c2cc(-c3cn4nc(OC)sc4n3)oc2c1 [Example 147] | 1.6
CCCc1ccc(C(=O)Nc2cccc(COc3cc(OC)cc4oc(-c5cn6nc(OC)sc6n5)cc34)c2)cc1 [Example 31] | 1.3
COc1cc(OCc2cccc(NC(=O)c3ccccc3I)c2)c2cc(-c3cn4nc(OC)sc4n3)oc2c1 [Example 24] | 1.4
COc1ccc(C(=O)Nc2cccc(COc3cc(OC)cc4oc(-c5cn6nc(OC)sc6n5)cc34)c2)c(OC)c1 [Example 42] | 2.3
COc1cc(OCc2cccc(NC(=O)c3cc(Cl)nc(Cl)c3)c2)c2cc(-c3cn4nc(OC)sc4n3)oc2c1 [Example 55] | 1.1
COc1cc(OCc2cccc(NC(=O)c3cccc(Cl)c3)c2)c2cc(-c3cn4nc(OC)sc4n3)oc2c1 [Example 11] | 1.7
COc1cc(OCc2cccc(NC(=O)c3cc(F)cc(C(F)(F)F)c3)c2)c2cc(-c3cn4nc(OC)sc4n3)oc2c1 [Example 142] | 1.3
COc1cc(OCc2cccc(NC(=O)c3cccc(C(F)(F)F)c3)c2)c2cc(-c3cn4nc(OC)sc4n3)oc2c1 [Example 149] | 2
COc1cc(OCc2cccc(NC(=O)c3ccc(F)cc3C(F)(F)F)c2)c2cc(-c3cn4nc(OC)sc4n3)oc2c1 [Example 141] | 1.9
COc1cc(OCc2cccc3c2CCN3C(=O)c2sc(C)nc2C)c2cc(-c3cn4nc(OC)sc4n3)oc2c1 [Example 129] | 4.2
COc1cc(OCc2cccc(NC(=O)CC3CCCCC3)c2)c2cc(-c3cn4nc(OC)sc4n3)oc2c1 [Example 146] | 7.5
COc1cc(OCc2cccc(NC(=O)c3ccc(F)c(F)c3F)c2)c2cc(-c3cn4nc(OC)sc4n3)oc2c1 [Example 14] | 1.4
COc1cc(OCc2cccc(NC(=O)c3ccnc(F)c3)c2)c2cc(-c3cn4nc(OC)sc4n3)oc2c1 [Example 48] | 2.7
COc1cc(OCc2cccc(NC(=O)c3cnccn3)c2)c2cc(-c3cn4nc(OC)sc4n3)oc2c1 [Example 133] | 2.7
COc1cc(OCc2ccc3c(c2)N(C(=O)c2cc(C)cc(C(F)(F)F)c2)CC3)c2cc(-c3cn4nc(OC)sc4n3)oc2c1 [Example 111] | 6

SMILES | EC50 [nM]
COc1cc(OCc2cccc(NC(=O)c3ccc([N+](=O)[O-])cc3)c2)c2cc(-c3cn4nc(OC)sc4n3)oc2c1 [Example 33] | 1.8
COc1cc(OCc2cccc(NC(=O)c3ccccn3)c2)c2cc(-c3cn4nc(OC)sc4n3)oc2c1 [Example 139] | 2.7
COc1cc(OCc2cccc(NC(=O)c3ccc(F)c(F)c3)c2)c2cc(-c3cn4nc(OC)sc4n3)oc2c1 [Example 166] | 2.3
COc1cc(OCc2cccc(NC(=O)c3ccc(F)cc3F)c2)c2cc(-c3cn4nc(OC)sc4n3)oc2c1 [Example 152] | 1.3
COc1cc(OCc2cccc(NC(=O)c3ccc(N(C)C)cc3)c2)c2cc(-c3cn4nc(OC)sc4n3)oc2c1 [Example 43] | 1.6
COc1cc(OCc2cccc3c2CCN3C(=O)c2ccc(C)cc2)c2cc(-c3cn4nc(OC)sc4n3)oc2c1 [Example 123] | 5
COc1cc(OCc2cccc(NC(=O)c3ccc(OC)c(C(F)(F)F)c3)c2)c2cc(-c3cn4nc(OC)sc4n3)oc2c1 [Example 157] | 2.8
COC(=O)c1ccc(C(=O)Nc2cccc(COc3cc(OC)cc4oc(-c5cn6nc(OC)sc6n5)cc34)c2)cc1 [Example 34] | 1.2
COc1cc(OCc2cccc(NC(=O)c3cncnc3)c2)c2cc(-c3cn4nc(OC)sc4n3)oc2c1 [Example 57] | 1.8
COc1cc(OCc2cccc(N(C)C(=O)c3ccccc3F)c2)c2cc(-c3cn4nc(OC)sc4n3)oc2c1 [Example 88] | 3.3
COc1cc(OCc2cccc3c2CCN3)c2cc(-c3cn4nc(OC)sc4n3)oc2c1 [Example 114, 6-(4-(Indolin-4-ylmethoxy)-6-methoxybenzofuran-2-yl)-2-methoxyimidazo[2,1-b][1,3,4]thiadiazole] | 37
COc1cc(OCc2cccc(NC(=O)c3ccccc3)c2)c2cc(-c3cn4nc(OC)sc4n3)oc2c1 [Example 1, N-(3-(((6-methoxy-2-(2-methoxyimidazo[2,1-b][1,3,4]thiadiazol-6-yl)benzofuran-4-yl)oxy)methyl)phenyl)benzamide] | 1.1
COc1cc(OCc2cccc(NC(=O)c3ccc(Br)cn3)c2)c2cc(-c3cn4nc(OC)sc4n3)oc2c1 [Example 65] | 1.1
COc1cc(OCc2cccc3c2CCN3C(=O)c2cc(C)cc(C(F)(F)F)c2)c2cc(-c3cn4nc(OC)sc4n3)oc2c1 [Example 125] | 3.9
COc1cc(OCc2cccc(NC(=O)c3csc(-c4ccc(F)cc4)n3)c2)c2cc(-c3cn4nc(OC)sc4n3)oc2c1 [Example 77] | 120
COc1cc(OCc2cccc(NC(=O)c3csc(C(F)(F)F)n3)c2)c2cc(-c3cn4nc(OC)sc4n3)oc2c1 [Example 70] | 1
COc1cc(OCc2cccc(NC(=O)C3CCCCC3)c2)c2cc(-c3cn4nc(OC)sc4n3)oc2c1 [Example 150] | 2.3
COc1cc(OCc2cccc(NC(=O)c3c(F)cc(F)cc3F)c2)c2cc(-c3cn4nc(OC)sc4n3)oc2c1 [Example 21] | 1.5
COc1cc(OCc2cccc(NC(=O)c3cnc(-c4ccccc4)nc3C)c2)c2cc(-c3cn4nc(OC)sc4n3)oc2c1 [Example 66] | 5.7
COc1cc(OCc2cccc(N(C)C(=O)OC(C)(C)C)c2)c2cc(-c3cn4nc(OC)sc4n3)oc2c1 [Example 81, tert-Butyl (3-(((6-methoxy-2-(2-methoxyimidazo[2,1-b][1,3,4]thiadiazol-6-yl)benzofuran-4-yl)oxy)methyl)phenyl)(methyl)carbamate] | 4.8
COc1cc(OCc2cccc(NC(=O)c3ccc(C)c(F)c3)c2)c2cc(-c3cn4nc(OC)sc4n3)oc2c1 [Example 163] | 2.1
COc1cc(OCc2cccc(NC(=O)c3cc(C)cc(C(F)(F)F)c3)c2)c2cc(-c3cn4nc(OC)sc4n3)oc2c1 [Example 71] | 1.9
COc1cc(OCc2cccc(NC(=O)c3ccc(C(F)(F)F)c(F)c3)c2)c2cc(-c3cn4nc(OC)sc4n3)oc2c1 [Example 161] | 1.5
COc1cc(OCc2cccc(NC(=O)c3ccccc3C)c2)c2cc(-c3cn4nc(OC)sc4n3)oc2c1 [Example 27] | 0.87
COc1cc(OCc2cccc(NC(=O)c3cc(Cl)cc(Cl)c3)c2)c2cc(-c3cn4nc(OC)sc4n3)oc2c1 [Example 19] | 3.3
